Test results reported in publication PMC10252594 (Cancers, 2023).
Several values for one entry are separate records, joined by “and”; a condition that tells them apart may be missing. Identical values can stand only once.

Tested on: LAPC-4 xenografts
Assay: Fatty acid determination (GC-FID) in LAPC-4 xenograft experiment
Format: in vivo, mice
Details: 10 mg/kg PO
Procedure: […] The fatty acid profile was next determined by gas chromatography (GC), coupled with a flame ionization detector (FID), using phosphatidylcholine C21:0 (Avanti Polar Lipids) as an internal standard. The GC model 5890 was from Agilent Technologies (Mississauga, ON, Canada). The capillary column used was a HP-88 (100 m × 0.25 mm, […], Agilent Technologies), and the carrier gas was helium at 1.5 mL/min. A total of 56 fatty acids were identified according to their retention time, using fatty acid mixtures as standards.

[1] = LAPC-4 tumor, 28 days (RM-581 group per Table S1)
[2] = LAPC-4 tumor, 28 days, Table S1

C#C[C@]1(O)CC[C@H]2[C@@H]3CCc4cc(OC)c(N5CCN(C(=O)[C@@H]6CCCN6C(=O)c6ccc7ccccc7n6)CC5)cc4[C@H]3CC[C@@]21C [RM-581]
S-FA, liver (28 days): 12.5 mg/g | S-FA, plasma (28 days): 1.10 µg/mL | S-FA, plasma, % vs CTL (28 days): +2.8% | S-FA, tumor (28 days): 8.15 mg/g | T-FA, liver (28 days): 34.5 mg/g | T-FA, liver, % vs CTL (28 days): +19.8% | T-FA, plasma (28 days): 3.71 µg/mL | T-FA, plasma, % vs CTL (28 days): +1.6% | T-FA, tumor (28 days): 24.5 mg/g | U-FA, liver (28 days): 21.9 mg/g | U-FA, plasma (28 days): 2.59 µg/mL | U-FA, plasma, % vs CTL (28 days): +1.6% | U-FA, tumor (28 days): 16.0 mg/g | Adrenic acid-1 (7c10c13c16c) 22:4, % vs CTL (LAPC-4 tumor, 28 days): +8.6% | Adrenic acid-1 (7c10c13c16c) 22:4, FA RM-581 (LAPC-4 tumor, 28 days): 0.380 mg/g | Adrenic acid-2 (4c7c10c13c16c) 22:5, % vs CTL (LAPC-4 tumor, 28 days): −12% | Adrenic acid-2 (4c7c10c13c16c) 22:5, FA RM-581 (LAPC-4 tumor, 28 days): 0.260 mg/g | Alpha-linolenic acid (9c12c15c) 18:3, FA RM-581 (LAPC-4 tumor, 28 days): 0.230 mg/g | Arachidonic (5c8c11c14c) 20:4, % vs CTL (LAPC-4 tumor, 28 days): −2.1% | Arachidonic (5c8c11c14c) 20:4, FA RM-581 (LAPC-4 tumor, 28 days): 2.150 mg/g | Cervonic acid 22:6, % vs CTL (LAPC-4 tumor, 28 days): 0% | Cervonic acid 22:6, FA RM-581 (LAPC-4 tumor, 28 days): 0.530 mg/g | Dihomo-γ-linolenic acid (8c11c14c) 20:3, FA RM-581 (LAPC-4 tumor, 28 days): 0.580 mg/g | Dimethoxyhexadecanoic acid 16:0, % vs CTL (LAPC-4 tumor, 28 days): 0% | Dimethoxyhexadecanoic acid 16:0, FA RM-581 (LAPC-4 tumor, 28 days): 0.170 mg/g | Docosapentaenoic acid (7c10c13c16c19c) 22:5, % vs CTL (LAPC-4 tumor, 28 days): +17% | Docosapentaenoic acid (7c10c13c16c19c) 22:5, FA RM-581 (LAPC-4 tumor, 28 days): 0.140 mg/g | Lignoceric acid 24:0, % vs CTL (LAPC-4 tumor, 28 days): +23% | Lignoceric acid 24:0, FA RM-581 (LAPC-4 tumor, 28 days): 0.160 mg/g | Linoleic acid (9c12c) 18:2, FA RM-581 (LAPC-4 tumor, 28 days): 4.435 mg/g | Myristic acid 14:0, FA RM-581 (LAPC-4 tumor, 28 days): 0.275 mg/g | Nervonic acid (15c) 24:1, % vs CTL (LAPC-4 tumor, 28 days): +18% | Nervonic acid (15c) 24:1, FA RM-581 (LAPC-4 tumor, 28 days): 0.130 mg/g | Oleic acid (9c) 18:1, FA RM-581 (LAPC-4 tumor, 28 days): 4.920 mg/g | Palmitic acid 16:0, FA RM-581 (LAPC-4 tumor, 28 days): 5.095 mg/g | Palmitoleic acid (9c) 16:1, FA RM-581 (LAPC-4 tumor, 28 days): 1.035 mg/g | Stearic acid 18:0, % vs CTL (LAPC-4 tumor, 28 days): +3.5% | Stearic acid 18:0, FA RM-581 (LAPC-4 tumor, 28 days): 2.355 mg/g | Vaccenic acid (11c) 18:1, % vs CTL (LAPC-4 tumor, 28 days): +5.3% | Vaccenic acid (11c) 18:1, FA RM-581 (LAPC-4 tumor, 28 days): 0.690 mg/g | Adrenic acid-1 (7c10c13c16c) 22:4, % of Total FA [1]: 1.54% | Adrenic acid-2 (4c7c10c13c16c) 22:5, % of Total FA [1]: 1.07% | Alpha-linolenic acid (9c12c15c) 18:3, % of Total FA [1]: 0.94% | Arachidonic (5c8c11c14c) 20:4, % of Total FA [1]: 8.77% | Cervonic acid 22:6, % of Total FA [1]: 2.18% | Dihomo-γ-linolenic acid (8c11c14c) 20:3, % of Total FA [1]: 2.35% | Dimethoxyhexadecanoic acid 16:0, % of Total FA [1]: 0.68% | Docosapentaenoic acid (7c10c13c16c19c) 22:5, % of Total FA [1]: 0.57% | Lignoceric acid 24:0, % of Total FA [1]: 0.65% | Linoleic acid (9c12c) 18:2, % of Total FA [1]: 18.1% | Myristic acid 14:0, % of Total FA [1]: 1.12% | Nervonic acid (15c) 24:1, % of Total FA [1]: 0.52% | Oleic acid (9c) 18:1, % of Total FA [1]: 20.1% | Palmitic acid 16:0, % of Total FA [1]: 20.8% | Palmitoleic acid (9c) 16:1, % of Total FA [1]: 4.23% | Stearic acid 18:0, % of Total FA [1]: 9.61% | Vaccenic acid (11c) 18:1, % of Total FA [1]: 2.82% | Arachidic acid 20:0, FA RM-581 [2]: 0.05 mg/g | Arachidic acid 20:0, FA RM-581 % of total [2]: 0.20% | Behenic acid 22:0, FA RM-581 [2]: 0.09 mg/g | Behenic acid 22:0, FA RM-581 % of total [2]: 0.35% | Caproic acid 10:0, FA RM-581 [2]: 0 mg/g | Caproic acid 10:0, FA RM-581 % of total [2]: 0.02% | Caprylic acid 8:0, FA RM-581 [2]: 0 mg/g | Caprylic acid 8:0, FA RM-581 % of total [2]: 0% | Dimethoxyoctadecanoic acid 18:0, FA RM-581 [2]: 0.09 mg/g | Dimethoxyoctadecanoic acid 18:0, FA RM-581 % of total [2]: 0.38% | Dimethoxyoctadecenoic acid (9c) w9 18:1, FA RM-581 [2]: 0.07 mg/g | Dimethoxyoctadecenoic acid (9c) w9 18:1, FA RM-581 % of total [2]: 0.29% | Elaidic acid (9t) w9 18:1, FA RM-581 [2]: 0 mg/g | Elaidic acid (9t) w9 18:1, FA RM-581 % of total [2]: 0% | Erucic acid w9 22:1, FA RM-581 [2]: 0.025 mg/g | Erucic acid w9 22:1, FA RM-581 % of total [2]: 0.10% | FA (1c) w14 15:1, FA RM-581 [2]: 0 mg/g | FA (1c) w14 15:1, FA RM-581 % of total [2]: 0% | FA (5c) w10 15:1, FA RM-581 [2]: 0 mg/g | FA (5c) w10 15:1, FA RM-581 % of total [2]: 0% | FA (5t) w10 15:1, FA RM-581 [2]: 0 mg/g | FA (5t) w10 15:1, FA RM-581 % of total [2]: 0% | FA (7c) w10 17:1, FA RM-581 [2]: 0.05 mg/g | FA (7c) w10 17:1, FA RM-581 % of total [2]: 0.20% | FA (7t) w10 17:1, FA RM-581 [2]: 0.02 mg/g | FA (7t) w10 17:1, FA RM-581 % of total [2]: 0.09% | FA (8c11c14c17c) w3 20:4, FA RM-581 [2]: 0.04 mg/g | FA (8c11c14c17c) w3 20:4, FA RM-581 % of total [2]: 0.16% | FA (8c) w12 20:1, FA RM-581 [2]: 0 mg/g | FA (8c) w12 20:1, FA RM-581 % of total [2]: 0% | FA (9c12t) w6 18:2, FA RM-581 [2]: 0.02 mg/g | FA (9c12t) w6 18:2, FA RM-581 % of total [2]: 0.09% | FA (9t12c) w6 18:2, FA RM-581 [2]: 0 mg/g | FA (9t12c) w6 18:2, FA RM-581 % of total [2]: 0% | FA (9t12t15t) w3 18:3, FA RM-581 [2]: 0.01 mg/g | FA (9t12t15t) w3 18:3, FA RM-581 % of total [2]: 0.03% | FA (9t) w5 14:1, FA RM-581 [2]: 0.01 mg/g | FA (9t) w5 14:1, FA RM-581 % of total [2]: 0.03% | FA (9t) w13 22:1, FA RM-581 [2]: 0 mg/g | FA (9t) w13 22:1, FA RM-581 % of total [2]: 0% | FA (11c14c17c) w3 20:3, FA RM-581 [2]: 0 mg/g | FA (11c14c17c) w3 20:3, FA RM-581 % of total [2]: 0% | FA (11c14c) w6 20:2, FA RM-581 [2]: 0.08 mg/g | FA (11c14c) w6 20:2, FA RM-581 % of total [2]: 0.34% | FA (12c) w6 18:1, FA RM-581 [2]: 0 mg/g | FA (12c) w6 18:1, FA RM-581 % of total [2]: 0% | FA (13c16c19c) w3 22:3, FA RM-581 [2]: 0 mg/g | FA (13c16c19c) w3 22:3, FA RM-581 % of total [2]: 0% | FA (13c16c) w6 22:2, FA RM-581 [2]: 0.01 mg/g | FA (13c16c) w6 22:2, FA RM-581 % of total [2]: 0.04% | FA (13c) w5 18:1, FA RM-581 [2]: 0.02 mg/g | FA (13c) w5 18:1, FA RM-581 % of total [2]: 0.07% | Gamma-linolenic acid (6c9c12c) w6 18:3, FA RM-581 [2]: 0.05 mg/g | Gamma-linolenic acid (6c9c12c) w6 18:3, FA RM-581 % of total [2]: 0.19% | Gondoic acid (11c) w9 20:1, FA RM-581 [2]: 0.08 mg/g | Gondoic acid (11c) w9 20:1, FA RM-581 % of total [2]: 0.32% | Isobranched 17:0, FA RM-581 [2]: 0.02 mg/g | Isobranched 17:0, FA RM-581 % of total [2]: 0.08% | Lauric acid 12:0, FA RM-581 [2]: 0.02 mg/g | Lauric acid 12:0, FA RM-581 % of total [2]: 0.10% | Linolelaidic acid (9t12t) w6 18:2, FA RM-581 [2]: 0.03 mg/g | Linolelaidic acid (9t12t) w6 18:2, FA RM-581 % of total [2]: 0.14% | Myristoleic acid (9c) w5 14:1, FA RM-581 [2]: 0.02 mg/g | Myristoleic acid (9c) w5 14:1, FA RM-581 % of total [2]: 0.06% | Palmitelaidic acid (9t) w1 16:1, FA RM-581 [2]: 0 mg/g | Palmitelaidic acid (9t) w1 16:1, FA RM-581 % of total [2]: 0% | Pentadecanoic acid 15:0, FA RM-581 [2]: 0.04 mg/g | Pentadecanoic acid 15:0, FA RM-581 % of total [2]: 0.17% | Petroselaidic acid (6t) w12 18:1, FA RM-581 [2]: 0 mg/g | Petroselaidic acid (6t) w12 18:1, FA RM-581 % of total [2]: 0% | Petroselinic acid (7c-n11/6c-n12) w11/12 18:1, FA RM-581 [2]: 0 mg/g | Petroselinic acid (7c-n11/6c-n12) w11/12 18:1, FA RM-581 % of total [2]: 0% | Stearidonic acid (6c9c12c15c) w3 18:4, FA RM-581 [2]: 0 mg/g | Stearidonic acid (6c9c12c15c) w3 18:4, FA RM-581 % of total [2]: 0% | Timnodonic acid (5c8c11c14c17c) w3 20:5, FA RM-581 [2]: 0.025 mg/g | Timnodonic acid (5c8c11c14c17c) w3 20:5, FA RM-581 % of total [2]: 0.10% | Trans-vaccenic acid (11t) w7 18:1, FA RM-581 [2]: 0.03 mg/g | Trans-vaccenic acid (11t) w7 18:1, FA RM-581 % of total [2]: 0.13% | increase in linoleic acid level inside the tumors (LAPC-4 tumor, 10 mg/kg): 1.59 mg/g and ~ 5.7 mM | increase in oleic acid level inside the tumors (LAPC-4 tumor, 10 mg/kg): 1.26 mg/g and ~ 4.5 mM
